From patent US10336762B2 (priority 2017, dated 2019) come the findings set out here.

The target of one experiment is IRAK4 enzyme (Homo sapiens (Human), UniProt Q9NWZ3). Nature of the experiment: biochemical. Conditions: IRAK4 enzyme, TR-FRET (HTRF), 500 μM ATP. It counts as biochemical.
The next experiment has as its system TNFα. Nature of the experiment: cells. It counts as cell-based, human. Particulars: Homo sapiens, Monocyte, LPS-stimulated human monocytes, TNFα content; read-out: EC50 TNF.

IRAK4 enzyme, sequence (Q9NWZ3 whole entry): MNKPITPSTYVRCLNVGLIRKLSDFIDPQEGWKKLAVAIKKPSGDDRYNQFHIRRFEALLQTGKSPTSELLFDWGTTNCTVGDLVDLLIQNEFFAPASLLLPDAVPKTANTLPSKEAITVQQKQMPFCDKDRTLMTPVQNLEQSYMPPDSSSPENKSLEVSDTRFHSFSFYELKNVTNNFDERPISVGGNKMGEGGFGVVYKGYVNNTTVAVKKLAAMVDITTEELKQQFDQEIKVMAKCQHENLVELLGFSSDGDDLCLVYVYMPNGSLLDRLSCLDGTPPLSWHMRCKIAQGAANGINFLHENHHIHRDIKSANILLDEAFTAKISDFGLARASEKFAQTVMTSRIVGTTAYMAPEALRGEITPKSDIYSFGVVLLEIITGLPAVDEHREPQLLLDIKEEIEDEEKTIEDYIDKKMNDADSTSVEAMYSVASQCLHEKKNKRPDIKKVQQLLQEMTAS

Regarding `COC(=O)N[C@H]1C[C@H](CNc2cc(-c3ccc4cc(C#N)cnn34)ncc2C(=O)NC[C@@H](F)C(C)(C)O)C1` [Example 615, methyl ((1R,3r)-3-(((2-(3-cyanopyrrolo[1,2-b]pyridazin-7-yl)-5-(((R)-2-fluoro-3-hydroxy-3-methylbutyl)carbamoyl)pyridin-4-yl)amino)methyl)cyclobutyl)carbamate], the IC50 against IRAK4 enzyme is below 1 nM. In addition, the EC50 in the experiment with TNFα amounted to 46 nM.

`N#Cc1cnn2c(-c3cc(NC45CCC(O)(CC4)CC5)c(C(=O)NCC4CCO4)cn3)ccc2c1` (stereo not shown) [Example 616, 6-(3-cyanopyrrolo[1,2-b]pyridazin-7-yl)-4-((4-hydroxybicyclo[2.2.2]octan-1-yl)amino)-N-(oxetan-2-ylmethyl) nicotinamide] registered an IC50 against IRAK4 enzyme of 2 nM. Moreover, in the experiment with TNFα, the EC50 was 144 nM.

On IRAK4 enzyme, `N#Cc1cnn2c(-c3cc(NC45CCC(O)(CC4)CC5)c(C(=O)NCC4COC4)cn3)ccc2c1` [Example 617, 6-(3-cyanopyrrolo[1,2-b]pyridazin-7-yl)-4-((4-hydroxybicyclo[2.2.2]octan-1-yl)amino)-N-(oxetan-3-ylmethyl) nicotinamide] returned a half-maximal inhibitory concentration (IC50) of 2 nM. Besides, the EC50 in the experiment with TNFα worked out at 144 nM.

Turning to `COC(=O)N[C@]1(C)CC[C@@H](Nc2cc(-c3ccc4cc(C#N)cnn34)ncc2C(=O)NC[C@@H](F)C(C)(C)O)CC1` [Example 618, methyl ((1R,4r)-4-((2-(3-cyanopyrrolo[1,2-b]pyridazin-7-yl)-5-(((R)-2-fluoro-3-hydroxy-3-methylbutyl)carbamoyl)pyridin-4-yl)amino)-1-methylcyclohexyl) carbamate], on IRAK4 enzyme, the IC50 amounted to 4 nM. In addition, the EC50 in the experiment with TNFα stood at 335 nM.

`COC(=O)N[C@]1(C)CC[C@H](Nc2cc(-c3ccc4cc(C#N)cnn34)ncc2C(=O)NC[C@@H](F)C(C)(C)O)CC1` [Example 619, methyl ((1S,4s)-4-((2-(3-cyanopyrrolo[1,2-b]pyridazin-7-yl)-5-(((R)-2-fluoro-3-hydroxy-3-methylbutyl)carbamoyl)pyridin-4-yl)amino)-1-methylcyclohexyl) carbamate] yielded an IC50 at IRAK4 enzyme of 3 nM. Also, the EC50 with TNFα was 168 nM.

`COC(=O)N(C)C[C@H]1C[C@H](Nc2cc(-c3ccc4cc(C#N)cnn34)ncc2C(=O)NC[C@@H](F)C(C)(C)O)C1` [Example 620, Methyl (((1R,3r)-3-((2-(3-cyanopyrrolo[1,2-b]pyridazin-7-yl)-5-(((R)-2-fluoro-3-hydroxy-3-methylbutyl)carbamoyl)pyridin-4-yl)amino)cyclobutyl)methyl)(methyl)carbamate] had an IC50 against IRAK4 enzyme of 1 nM. Also, the EC50 in the experiment on TNFα worked out at 54 nM.

In turn, `N#Cc1cnn2c(-c3cc(NC45CCC(O)(CC4)CC5)c(C(=O)NCc4ncco4)cn3)ccc2c1` [Example 621, 6-(3-cyanopyrrolo[1,2-b]pyridazin-7-yl)-4-((4-hydroxybicyclo[2.2.2]octan-1-yl)amino)-N-(oxazol-2-ylmethyl) nicotinamide] displayed an IC50 against IRAK4 enzyme of 1 nM. In addition, the EC50 in the experiment on TNFα was found to be 98 nM.

In turn, `CC(C)(O)c1coc(CNC(=O)c2cnc(-c3ccc4cc(C#N)cnn34)cc2NC23CCC(O)(CC2)CC3)n1` [Example 622, 6-(3-cyanopyrrolo[1,2-b]pyridazin-7-yl)-4-((4-hydroxybicyclo[2.2.2]octan-1-yl)amino)-N-((4-(2-hydroxypropan-2-yl)oxazol-2-yl)methyl)nicotinamide] came in with an IC50 against IRAK4 enzyme of 2 nM. The EC50 in the experiment with TNFα stood at 407 nM.

As for `C#CCNC(=O)c1cnc(-c2ccc3cc(C#N)cnn23)cc1NC12CCC(O)(CC1)CC2` [Example 623, 6-(3-cyanopyrrolo[1,2-b]pyridazin-7-yl)-4-((4-hydroxybicyclo[2.2.2]octan-1-yl)amino)-N-(prop-2-yn-1-yl) nicotinamide], at IRAK4 enzyme, the IC50 is below 1 nM. In addition, the EC50 in the experiment with TNFα was 63 nM.

In the case of `N#Cc1cnn2c(-c3cc(NC45CCC(O)(CC4)CC5)c(C(=O)NCc4ccc[nH]c4=O)cn3)ccc2c1` [Example 624, 6-(3-cyanopyrrolo[1,2-b]pyridazin-7-yl)-4-((4-hydroxybicyclo[2.2.2]octan-1-yl)amino)-N-((2-oxo-1,2-dihydro-pyridin-3-yl)methyl) nicotinamide], the IC50 against IRAK4 enzyme is 3 nM. Besides, the EC50 with TNFα amounted to 1640 nM.

Take `CC(C)(O)[C@H](F)CNC(=O)c1cnc(-c2ccc3cc(C#N)cnn23)cc1Nc1ccc(-c2cnco2)nc1` [Example 625, (R)-6-(3-cyanopyrrolo[1,2-b]pyridazin-7-yl)-N-(2-fluoro-3-hydroxy-3-methylbutyl)-4-((6-(oxazol-5-yl)pyridin-3-yl)amino)nicotinamide]: on IRAK4 enzyme, the IC50 was below 1 nM. Also, the EC50 in the experiment on TNFα worked out at 22 nM.

At IRAK4 enzyme, `N#Cc1cnn2c(-c3cc(NC4COC4)c(C(=O)NCC(=O)N4CC(F)(F)C4)cn3)ccc2c1` [Example 626, 6-(3-cyanopyrrolo[1,2-b]pyridazin-7-yl)-N-(2-(3,3-difluoroazetidin-1-yl)-2-oxoethyl)-4-(oxetan-3-ylamino)nicotinamide] yielded an IC50 below 1 nM. For the same compound, the EC50 in the experiment on TNFα came out at 79 nM.

`CC(C)(O)[C@H](F)CNC(=O)c1cnc(-c2ccc3cc(C#N)cnn23)cc1Nc1ccc(-c2nnco2)cc1` [Example 627, (R)-4-((4-(1,3,4-oxadiazol-2-yl)phenyl)amino)-6-(3-cyanopyrrolo[1,2-b]pyridazin-7-yl)-N-(2-fluoro-3-hydroxy-3-methylbutyl)nicotinamide] gave an IC50 against IRAK4 enzyme below 1 nM. For the same compound, the EC50 in the experiment with TNFα is 30 nM.

Compound `CC(C)(O)[C@H](F)CNC(=O)c1cnc(-c2ccc3cc(C#N)cnn23)cc1Nc1ccc(-c2cocn2)cc1` [Example 628, (R)-6-(3-cyanopyrrolo[1,2-b]pyridazin-7-yl)-N-(2-fluoro-3-hydroxy-3-methyl-butyl)-4-((4-(oxazol-4-yl)phenyl)amino) nicotinamide] had an IC50 on IRAK4 enzyme below 1 nM. The EC50 with TNFα turned out to be 26 nM.

For `Cc1ncoc1-c1ccc(Nc2cc(-c3ccc4cc(C#N)cnn34)ncc2C(=O)NC[C@@H](F)C(C)(C)O)cc1` [Example 629, (R)-6-(3-cyanopyrrolo[1,2-b]pyridazin-7-yl)-N-(2-fluoro-3-hydroxy-3-methylbutyl)-4-((4-(4-methyloxazol-5-yl)phenyl)amino)nicotinamide], on IRAK4 enzyme, the IC50 is below 1 nM. In the experiment with TNFα, the concentration for a half-maximal effect (EC50) is 22 nM.

Compound `CC(C)(O)[C@H](F)CNC(=O)c1cnc(-c2ccc3cc(C#N)cnn23)cc1N[C@H]1CC[C@H](c2cnco2)CC1` [Example 630, 6-(3-cyanopyrrolo[1,2-b]pyridazin-7-yl)-N-((R)-2-fluoro-3-hydroxy-3-methylbutyl)-4-(((1r,4R)-4-(oxazol-5-yl)cyclohexyl)amino)nicotinamide] showed an IC50 against IRAK4 enzyme below 1 nM. In addition, the half-maximal effective concentration (EC50) with TNFα is 9 nM.

`Cc1ncoc1[C@H]1CC[C@H](Nc2cc(-c3ccc4cc(C#N)cnn34)ncc2C(=O)NC[C@@H](F)C(C)(C)O)CC1` [Example 631, 6-(3-cyanopyrrolo[1,2-b]pyridazin-7-yl)-N-((R)-2-fluoro-3-hydroxy-3-methylbutyl)-4-(((1r,4R)-4-(4-methyloxazol-5-yl)cyclohexyl)amino) nicotinamide] registered a half-maximal inhibitory concentration (IC50) on IRAK4 enzyme of 2 nM. The EC50 in the experiment on TNFα was found to be 21 nM.
